In patent publication US12508241B2, “Peripheral nerve agonists suppress inflammation” (University of Pittsburgh—Of the Commonwealth System of …, priority 2019, dated 2025):

Assays:
[1] = target: MRGPRD (Homo sapiens, UniProt Q8TDS7); settings: cited from earlier work; for activity as MRGPRD agonists relative to β-ala: compared with β-ala
[2] = tested on: DNFB contact hypersensitivity; settings: MRGPRD-DTR mice treated with DT (MRGPRD-ablated), same regimen
Experimental: Referring to FIG. 2, cohorts of C57BL/6 mice (n=5) were either pre-treated by i.d. injection of b-alanine (WT+b-ala) or vehicle (WT) on the abdomen for 2 days followed by sensitization at the same site with 0.2% DNFB (a chemical sensitizer). Five days later 0.2% DNFB was applied to the ear. The increased degree of ear swelling on the indicated day compared to ear thickness prior to application of DNFB was measured. Increased ear thickness was employed a surrogate for the amount of immune response to DNFB was measured. As a specificity control, MRGPRD-DTR mice treated with DT to ablate MRGPRD-expressing neurons (labeled MRGPRD in FIG. DD), and were treated similarly (MRGPRD and MRGPRD+b-ala).

[3] = tested on: mast cell degranulation; settings: 5% topical, shaved flank skin twice daily for 2 days, then i.d. compound 48/80, read ten minutes later; figure values in μg per g of tissue, p<0.01
Experimental: Mice were then given Evans' blue dye i.v. followed by an intradermal injection of compound 48/80. Ten minutes later, the amount of Evans' blue dye present in the skin (μg·g^−1 of tissue) as an indication of the extent of mast cell degranulation was determined by skin biopsy, enzymatic digestion, and […] evaluation.

[4] = tested on: wound healing pathways; settings: 100 mM injected twice daily for 2 days, WT C57BL/6; compared with published tape stripping RNAseq data
Experimental: Wild type C57BL/6 mice were injected with 100 mM β-alanine or vehicle twice daily for 2 days. Skin at the treated sites were harvested and mRNA was obtained and subjected to RNAseq. Genes with increased gene expression in the β-alanine treated group were anayzed by pathway analysis.

[5] = tested on: mast cell degranulation; assay: 48/80-mediated mast cell degranulation, Evan's blue dye in the skin, i.d. β-alanine pre-treatment; format: in vivo, C57BL/6 mice
Experimental: Compound 48/80, the condensation product of N-methyl p-methoxyphenethylamine and formaldehyde, is a well-known chemical that induces rapid mast cell degranulation and associated edema. The degree of edema in the skin is measured by the amount of Evan's blue dye in the skin. […] In mice that lack MRGPRD neurons, β-alanine had no effect on 48/80's ability to activate mast cells (compare columns 5 and 6). This is a specificity control since the neurons that express the receptor for β-alanine are absent.

Chain of MRGPRD (Q8TDS7 whole entry): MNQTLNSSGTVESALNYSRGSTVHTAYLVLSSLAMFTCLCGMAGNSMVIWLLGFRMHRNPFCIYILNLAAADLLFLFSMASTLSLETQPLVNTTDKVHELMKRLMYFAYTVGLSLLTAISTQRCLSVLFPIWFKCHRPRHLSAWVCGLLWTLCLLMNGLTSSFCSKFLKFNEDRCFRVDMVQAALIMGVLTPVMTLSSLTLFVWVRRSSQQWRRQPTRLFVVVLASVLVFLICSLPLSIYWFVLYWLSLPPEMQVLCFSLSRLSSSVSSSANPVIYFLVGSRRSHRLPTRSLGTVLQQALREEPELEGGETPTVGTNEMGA

Compound | activity as MRGPRD agonists relative to β-ala [1] | forskolin-stimulated cAMP production ([1]; cells expressing MRGPRD) | ear swelling (immune response to DNFB) [2] | mast cell degranulation (dermal Evan's blue dye) [3] | pathways activated in skin (RNAseq pathway analysis) [4] | Evan's blue dye in the skin (edema, mast cell degranulation) after compound 48/80 ([5]; C57BL/6 mice, i.d. pre-treatment for 2 days, then i.d. compound 48/80, FIG. 1 columns 3 and 4) | Evan's blue dye in the skin (48/80's ability to activate mast cells) ([5]; mice that lack MRGPRD neurons (specificity control), FIG. 1 columns 5 and 6) | cutaneous mast cell function ([5]; wild-type mice (summary statement of Example 1))
NCCCC(=O)O [GABA, 4-aminobutanoic acid] | significantly weaker |  |  |  |  |  |  | 
CC(CN)C(=O)O (stereo not drawn) [β-AIBA, 3-aminoisobutyric acid] | significantly weaker |  |  |  |  |  |  | 
NCCC(=O)O [β-alanine, 3-aminopropanoic acid] |  | decreases | no effect | suppresses | activates wound healing pathways | inhibited this effect | no effect | sufficient to suppress
